Laboratory results as given in patent US10494332B2, “Protein tyrosine phosphatases or SHP2 inhibitors and uses thereof” (Indiana University Research and Technology Corporation, priority 2015, dated 2019).
Several values for one entry are separate records, joined by “and”; a condition that tells them apart may be missing. Identical values can stand only once. Like-named read-outs stand apart in the source and are kept apart here.

Assays:
YopH = YopH (Yersinia enterocolitica, UniProt P15273); test: biochemical
YopH, sequence (P15273 whole entry, looked up): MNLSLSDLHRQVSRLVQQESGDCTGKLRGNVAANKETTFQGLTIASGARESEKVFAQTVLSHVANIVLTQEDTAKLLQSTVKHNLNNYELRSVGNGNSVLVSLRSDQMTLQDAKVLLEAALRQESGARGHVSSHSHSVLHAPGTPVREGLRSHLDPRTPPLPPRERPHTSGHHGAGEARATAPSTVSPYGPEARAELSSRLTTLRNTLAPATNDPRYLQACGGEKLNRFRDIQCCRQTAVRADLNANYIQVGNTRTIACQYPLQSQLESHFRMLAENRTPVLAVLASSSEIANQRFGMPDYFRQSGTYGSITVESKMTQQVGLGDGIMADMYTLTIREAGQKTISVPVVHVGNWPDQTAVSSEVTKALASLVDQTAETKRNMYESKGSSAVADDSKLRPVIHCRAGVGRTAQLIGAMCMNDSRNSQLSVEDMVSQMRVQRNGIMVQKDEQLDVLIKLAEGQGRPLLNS

PEST = target: T1, PEST (Homo sapiens, UniProt Q05209); test: PTP inhibition assay (pNPP); format: biochemical
T1 sequence (Q05209 1-780): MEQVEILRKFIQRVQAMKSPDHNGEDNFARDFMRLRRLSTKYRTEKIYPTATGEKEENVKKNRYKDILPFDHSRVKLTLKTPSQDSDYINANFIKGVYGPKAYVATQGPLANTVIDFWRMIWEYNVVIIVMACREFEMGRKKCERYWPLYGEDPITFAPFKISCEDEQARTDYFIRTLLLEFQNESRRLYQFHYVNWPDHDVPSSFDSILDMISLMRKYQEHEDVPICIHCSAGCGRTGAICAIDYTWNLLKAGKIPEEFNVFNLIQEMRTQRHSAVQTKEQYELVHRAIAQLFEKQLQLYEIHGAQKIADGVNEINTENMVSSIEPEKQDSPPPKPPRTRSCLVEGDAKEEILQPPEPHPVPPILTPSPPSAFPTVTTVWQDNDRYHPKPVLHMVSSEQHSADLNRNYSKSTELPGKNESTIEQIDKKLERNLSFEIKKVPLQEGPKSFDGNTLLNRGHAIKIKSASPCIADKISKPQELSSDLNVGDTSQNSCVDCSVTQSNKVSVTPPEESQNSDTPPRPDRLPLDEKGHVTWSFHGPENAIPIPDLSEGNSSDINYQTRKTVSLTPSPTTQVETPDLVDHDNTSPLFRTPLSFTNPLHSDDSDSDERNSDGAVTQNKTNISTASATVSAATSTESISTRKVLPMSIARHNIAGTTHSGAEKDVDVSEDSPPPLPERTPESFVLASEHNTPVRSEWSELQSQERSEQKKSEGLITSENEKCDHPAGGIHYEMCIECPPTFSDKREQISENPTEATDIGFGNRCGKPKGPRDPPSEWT

VHX = target: T2, VHX (Homo sapiens, UniProt Q9NRW4); test: PTP inhibition assay (pNPP); format: biochemical
T2 sequence (Q9NRW4 1-184): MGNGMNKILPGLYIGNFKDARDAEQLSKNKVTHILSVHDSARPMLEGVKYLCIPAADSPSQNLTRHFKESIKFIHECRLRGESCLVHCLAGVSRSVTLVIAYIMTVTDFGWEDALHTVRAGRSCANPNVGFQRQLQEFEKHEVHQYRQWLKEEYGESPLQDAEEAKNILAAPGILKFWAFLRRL

PTPβ = PTPβ (Homo sapiens, UniProt P23467); test: PTP inhibition assay (pNPP); format: biochemical
PTPβ, sequence (P23467 23-1997): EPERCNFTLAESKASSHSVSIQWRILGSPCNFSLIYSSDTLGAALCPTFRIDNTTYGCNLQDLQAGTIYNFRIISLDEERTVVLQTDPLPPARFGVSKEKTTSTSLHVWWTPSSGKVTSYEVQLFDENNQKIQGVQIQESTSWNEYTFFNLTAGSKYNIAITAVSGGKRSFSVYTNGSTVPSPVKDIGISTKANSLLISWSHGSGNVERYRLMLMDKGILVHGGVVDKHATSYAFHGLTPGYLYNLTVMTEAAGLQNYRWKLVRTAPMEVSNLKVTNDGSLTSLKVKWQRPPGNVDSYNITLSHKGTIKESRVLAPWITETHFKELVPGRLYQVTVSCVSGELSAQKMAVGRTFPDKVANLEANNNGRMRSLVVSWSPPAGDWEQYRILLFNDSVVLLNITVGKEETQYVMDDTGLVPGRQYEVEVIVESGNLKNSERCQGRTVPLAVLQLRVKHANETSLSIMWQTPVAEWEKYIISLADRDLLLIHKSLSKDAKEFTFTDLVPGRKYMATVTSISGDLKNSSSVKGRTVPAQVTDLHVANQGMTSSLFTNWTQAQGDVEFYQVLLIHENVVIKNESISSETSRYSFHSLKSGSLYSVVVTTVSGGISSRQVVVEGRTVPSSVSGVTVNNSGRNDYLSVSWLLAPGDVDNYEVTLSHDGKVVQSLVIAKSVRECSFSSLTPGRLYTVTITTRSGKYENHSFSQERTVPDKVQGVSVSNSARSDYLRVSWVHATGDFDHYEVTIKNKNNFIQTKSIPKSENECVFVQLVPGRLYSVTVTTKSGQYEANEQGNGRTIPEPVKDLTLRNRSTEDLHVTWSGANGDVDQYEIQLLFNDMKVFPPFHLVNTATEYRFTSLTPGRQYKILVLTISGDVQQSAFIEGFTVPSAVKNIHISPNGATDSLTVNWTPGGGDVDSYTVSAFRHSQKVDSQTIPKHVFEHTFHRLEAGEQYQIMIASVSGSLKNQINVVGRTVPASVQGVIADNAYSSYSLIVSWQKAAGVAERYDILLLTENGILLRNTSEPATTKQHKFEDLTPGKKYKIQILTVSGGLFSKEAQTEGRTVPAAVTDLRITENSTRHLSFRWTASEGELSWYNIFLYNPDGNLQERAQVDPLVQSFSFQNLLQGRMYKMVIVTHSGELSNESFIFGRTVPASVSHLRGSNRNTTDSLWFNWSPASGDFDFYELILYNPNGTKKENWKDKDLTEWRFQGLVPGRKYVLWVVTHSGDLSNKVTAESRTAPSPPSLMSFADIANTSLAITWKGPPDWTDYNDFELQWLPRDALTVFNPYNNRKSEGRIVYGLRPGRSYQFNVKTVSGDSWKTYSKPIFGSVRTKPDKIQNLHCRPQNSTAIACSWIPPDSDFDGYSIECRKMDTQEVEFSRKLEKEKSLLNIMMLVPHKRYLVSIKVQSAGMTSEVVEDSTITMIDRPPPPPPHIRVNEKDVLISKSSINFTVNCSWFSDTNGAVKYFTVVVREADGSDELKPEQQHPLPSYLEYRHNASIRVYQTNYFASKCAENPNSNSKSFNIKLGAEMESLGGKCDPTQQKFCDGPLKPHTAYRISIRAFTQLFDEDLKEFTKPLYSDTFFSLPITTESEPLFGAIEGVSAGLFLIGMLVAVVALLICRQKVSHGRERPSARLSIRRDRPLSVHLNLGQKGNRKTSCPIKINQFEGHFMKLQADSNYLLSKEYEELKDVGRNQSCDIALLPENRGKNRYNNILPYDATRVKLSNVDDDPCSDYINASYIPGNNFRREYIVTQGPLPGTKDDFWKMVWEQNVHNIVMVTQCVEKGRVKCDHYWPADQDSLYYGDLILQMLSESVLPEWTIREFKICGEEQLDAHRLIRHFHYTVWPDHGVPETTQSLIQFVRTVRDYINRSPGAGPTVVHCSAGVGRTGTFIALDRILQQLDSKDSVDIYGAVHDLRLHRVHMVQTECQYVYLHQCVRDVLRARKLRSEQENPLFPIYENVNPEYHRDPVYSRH

TcPTP = target: T3, TcPTP (Homo sapiens, UniProt P17706); test: PTP inhibition assay (pNPP); format: biochemical
T3 sequence (P17706 1-415): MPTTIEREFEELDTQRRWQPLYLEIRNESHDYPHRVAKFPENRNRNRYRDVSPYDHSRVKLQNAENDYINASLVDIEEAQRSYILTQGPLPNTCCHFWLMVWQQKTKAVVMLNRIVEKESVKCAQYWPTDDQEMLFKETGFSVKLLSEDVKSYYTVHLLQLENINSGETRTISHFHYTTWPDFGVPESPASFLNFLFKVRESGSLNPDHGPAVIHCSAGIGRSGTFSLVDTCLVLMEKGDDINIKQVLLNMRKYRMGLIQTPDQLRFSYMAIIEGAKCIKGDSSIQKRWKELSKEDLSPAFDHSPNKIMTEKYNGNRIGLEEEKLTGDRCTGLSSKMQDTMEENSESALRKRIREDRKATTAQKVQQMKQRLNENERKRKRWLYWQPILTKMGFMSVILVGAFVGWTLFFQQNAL

Ssu72 = target: T4, Ssu72 (Homo sapiens, UniProt Q9NP77); test: PTP inhibition assay (pNPP); format: biochemical
T4 sequence (Q9NP77 1-194): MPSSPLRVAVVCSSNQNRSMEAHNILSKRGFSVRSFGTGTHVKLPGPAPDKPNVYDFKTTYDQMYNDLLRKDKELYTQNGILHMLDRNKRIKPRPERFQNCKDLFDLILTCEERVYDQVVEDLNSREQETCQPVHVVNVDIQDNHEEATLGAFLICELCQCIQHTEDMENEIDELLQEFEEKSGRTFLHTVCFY

mPTPB = target: T5, mPTPB (Mycobacterium tuberculosis, UniProt I6WXK4); test: biochemical
T5 sequence (I6WXK4 1-276): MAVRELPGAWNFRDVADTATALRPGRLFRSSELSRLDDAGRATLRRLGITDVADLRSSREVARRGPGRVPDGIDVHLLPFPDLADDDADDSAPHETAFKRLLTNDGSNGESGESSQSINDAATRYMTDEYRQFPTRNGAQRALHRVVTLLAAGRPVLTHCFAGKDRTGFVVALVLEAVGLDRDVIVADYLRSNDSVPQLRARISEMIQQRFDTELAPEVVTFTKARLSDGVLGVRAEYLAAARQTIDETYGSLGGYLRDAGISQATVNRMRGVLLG

[1] = pNPP at Km, pH 7.0, 25° C., read-out: IC50 PEST
[2] = pNPP at Km, pH 7.0, 25° C.; read-out: IC50 VHX
[3] = pNPP at Km, pH 7.0, 25° C.; read-out: IC50 VHX (second VHX line of Table 15)
[4] = pNPP at Km, pH 7.0, 25° C., read-out: IC50 TcPTP
[5] = pNPP at Km, pH 7.0, 25° C., read-out: IC50 Ssu72
[6] = Biochemical potency against target (Ic50, nM) mPTPB
[7] = IC50 VHX (second VHX line of Table 15), pNPP at Km, pH 7.0, 25° C.
[8] = IC50 VHX, pNPP at Km, pH 7.0, 25° C.

Row | Structure (SMILES) | IC50 (YopH) [µM] | IC50 (PEST; [1]) | IC50 (VHX; [2]) | IC50 (VHX; [3]) [µM] | IC50 (PTPβ) [µM] | IC50 (TcPTP; [4]) | IC50 (Ssu72; [5]) [µM] | IC50 (mPTPB; [6]) [nM] | IC50 (mPTPB; IC50 mPTPB) | IC50 (PEST; IC50 PEST) [µM] | IC50 (PEST; pH 7, read-out: IC50 PEST) [µM] | IC50 (VHX; [7]) [µM] | IC50 (VHX; [8]) [µM] | IC50 (VHX; read-out: IC50 VHX; pNPP at Km, pH 7.0, 25° C.) [µM] | IC50 (TcPTP; IC50 TcPTP) [µM] | IC50 (Ssu72; IC50 Ssu72) [µM]
1 | O=C(CS(=O)(=O)O)Nc1ccc2nc(C(F)(F)F)[nH]c2c1 | > 100 | > 100 µM | > 100 µM | > 100 | > 100 | > 100 µM | > 100 |  |  |  |  |  |  |  |  | 
2 | O=C(C(c1ccccc1)S(=O)(=O)O)N1CCC(c2ccc(Cl)c(Cl)c2)CC1 (centres unmarked) [Compound L319N47] | 160 | 42 µM | 150 µM |  | 50 | 160 µM | > 200 | 9 |  |  |  |  |  |  |  | 
3 | O=C(C(c1ccccc1)S(=O)(=O)O)N1CCC(Cc2ccccc2)CC1 (centres unmarked) [Compound L319N46] | > 200 | > 200 µM | > 200 µM |  | > 200 | > 200 µM | > 200 | 60 |  |  |  |  |  |  |  | 
4 | O=C(CS(=O)(=O)O)Nc1cnc2ccccc2c1 | > 100 | > 100 µM | > 100 µM | > 100 | > 100 | > 100 µM | > 100 |  | 55000 nM |  |  |  |  |  |  | 
5 | O=C(Nc1ccc(N2CCOCC2)cc1)C(c1ccccc1)S(=O)(=O)O (centres unmarked) [Compound L319M68] | > 200 | > 200 µM | > 200 µM | > 200 | > 200 | > 200 µM | > 200 |  | 5000 nM |  |  |  |  |  |  | 
6 | O=C(C(c1ccccc1)S(=O)(=O)O)N1CCCC2CCCCC21 (centres unmarked) [Compound L319N53] | > 200 | > 200 µM | > 200 µM |  | > 200 | > 200 µM | > 200 | 20 |  |  |  |  |  |  |  | 
7 | Cc1c(Br)cc(NC(=O)C(c2ccccc2)S(=O)(=O)O)cc1Br (centres unmarked) [Compound L319M34] | > 200 |  |  |  |  |  |  |  | 50 to 200 nM and 55 nM | 42.3 | 72.3 | > 200 | 92 | 92 | > 100 | > 100
8 | O=C(Nc1cccc(OCc2ccccc2)c1)C(=O)Nc1ccccc1NC(=O)C(c1ccccc1)S(=O)(=O)O (centres unmarked) [Compound L319-21-M52] |  | > 50 µM | > 50 µM |  |  | > 50 µM | > 50 |  |  |  |  |  |  |  |  | 
9 | O=C(Nc1nc2ccccc2s1)C(c1ccccc1)S(=O)(=O)O (centres unmarked) [Compound L319N15] | > 200 | 43.5 µM | > 200 µM | > 200 | > 200 | > 200 µM | 69 |  | 116 nM |  |  |  |  |  |  | 
10 | O=C(CS(=O)(=O)O)Nc1nc2ccc([N+](=O)[O-])cc2s1 [Compound L335N15-07] | > 100 | > 100 µM | > 100 µM | > 100 | > 100 | > 100 µM | > 100 |  |  |  |  |  |  |  |  | 
11 | O=C(Nc1cnc2ccccc2c1)C(c1ccccc1)S(=O)(=O)O (centres unmarked) [Compound L319M88] | > 200 | > 200 µM | > 200 µM | > 200 | > 200 | > 200 µM | > 200 |  | 282 nM |  |  |  |  |  |  | 
12 | Cc1c(Br)cc(NC(=O)CS(=O)(=O)O)cc1Br | > 100 |  |  |  | > 100 |  |  | > 3200 | 3100 nM |  |  | > 100 | > 100 |  |  | 
13 | O=C(CS(=O)(=O)O)Nc1nc2ccccc2s1 [Compound L335N15] | > 100 | > 100 µM | > 100 µM | > 100 | > 100 | > 100 µM | > 100 |  | 9500 nM |  |  |  |  |  |  | 
14 | O=C(NCc1ccc(NC(=O)C(c2ccccc2)S(=O)(=O)O)cc1)c1ccccc1-c1ccc(C(F)(F)F)cc1 (centres unmarked) [Compound L319-05-A64] |  | 160 µM |  |  |  | 96 µM | 170 |  |  |  |  |  |  |  |  | 
15 | O=C(Nc1ccc(OCc2ccccc2)c(Cl)c1)C(c1ccccc1)S(=O)(=O)O (centres unmarked) [Compound L319M50] |  | 69.9 µM | > 100 µM |  |  | > 100 µM | 66.6 |  |  |  |  |  |  |  |  | 
16 | O=C(Nc1cccc(OCc2ccccc2)c1)C(c1ccccc1)S(=O)(=O)O (centres unmarked) [Compound L319M52] | > 200 | 77 µM and 77.4 µM | 170 µM and > 100 µM |  | > 200 | 170 µM and > 100 µM | 97.6 |  | 106 nM |  |  |  |  |  |  | 
17 | O=C(Nc1ccc(-c2ccccc2)cc1)C(c1ccccc1)S(=O)(=O)O (centres unmarked) [Compound L319N08] |  |  |  |  |  |  |  |  |  | 59.7 |  |  | > 200 |  | > 200 | 72.9
18 | O=C(NCCNC(=O)C(c1ccccc1)S(=O)(=O)O)c1cccc(C(=O)c2ccccc2)c1 (centres unmarked) [Compound L319-02-A60] |  | > 200 µM | > 200 µM |  |  | > 200 µM | > 200 |  |  |  |  |  |  |  |  | 
19 | CCCCc1ccc(NC(=O)C(=O)Nc2ccccc2NC(=O)C(c2ccccc2)S(=O)(=O)O)cc1 (centres unmarked) [Compound L319-21-M06] |  | > 50 µM | > 50 µM |  |  | > 50 µM | > 50 |  |  |  |  |  |  |  |  | 
20 | O=C(Nc1ccc2nc(C(F)(F)F)[nH]c2c1)C(c1ccccc1)S(=O)(=O)O (centres unmarked) [Compound L319M54] | > 200 | > 200 µM | > 200 µM | > 200 | > 200 | > 200 µM | > 200 |  | 78 nM |  |  |  |  |  |  | 
